Test results reported in ChEMBL document CHEMBL5729684, “Pharmaceutical compounds” (2023).

Test: Plaque Reduction Assay: Hep-G2 cells (ECACC, 85011430) were passaged in flasks and seeded in 24-well plates in DMEM containing antibiotics and supplemented with 10% FBS. During inoculation and subsequent incubation, cells were cultured in DMEM containing 2% FBS. 100 plaque forming unit/well of RSV (RSV A2 ECACC, 0709161v) was mixed with eight serial dilutions of compound. Subsequently, 100 μL of the virus/compound mixtures was added to confluent Hep-G2 cell monolayers. The cells and virus/compound mixtures were incubated at 37° C. in a humidified 5% CO2 incubator for 2 h prior to removal of the inoculum and addition of 1 mL of overlay (DMEM containing 2% FBS and 0.8% CMC) containing compound dilutions. The cells and were incubated at 37° C. in a humidified 5% CO2 incubator for 2 days.Cells were washed with PBS before adding 75/25% […] EtOH/MeOH, for 3 min. Fixative was removed and plates were washed with PBS. A pre-titrated amount of the primary antibody was added in 200 μL PBS/2% milk powder, and plates incubated for 90 min at 37° C. The plates were washed 3 times with PBS/0.05% Tween20 before addition of rabbit anti-goat horse radish peroxidase in 200 μL PBS/2% milk powder, and incubated for 1 h at 37° C. Following three wash steps with PBS/0.05% Tween20, 200 μL ready-to-use TrueBlue was added and plates were incubated at rt for 10-15 min before washing with water. After removal of water, plates were air-dried in the dark.Plates were scanned and analysed using the Immunospot S6 Macro analyser, which is equipped with BioSpot analysis software for counting immunostained plaques (virospots). Plaque counts were used to calculate % c infection relative to the mean of the plaque count in the virus control wells for RSV. The EC50 value was calculated as 50% reduction in signal, respectively, by interpolation of inhibition curves fitted with a 4-parameter nonlinear regression with a variable slope in Dotmatics.
Settings: HepG2

| Compound | EC50 [nM] |
| --- | --- |
| O=C(N[C@H]1N=C(c2ccccc2)c2cccc(F)c2NC1=O)c1c(-c2ccccc2)nn2cccnc12 | 90 |
| Cc1nc(NC(C)C)ccc1-c1nn2cccnc2c1C(=O)N[C@H]1N=C(c2ccccc2)c2cccc(F)c2NC1=O | 25 |
| Cc1nc(NC(C)C)ccc1-c1nn2cccnc2c1C(=O)N[C@H]1N=C(c2ccccc2)c2ccccc2NC1=O | 41 |
| Cc1cc(NC(C)C)ncc1-c1nn2cccnc2c1C(=O)N[C@H]1N=C(c2ccccc2)c2cccc(F)c2NC1=O | 74 |
| Cc1ccnc2c(C(=O)N[C@H]3N=C(c4ccccc4)c4cccc(F)c4NC3=O)c(-c3ccccc3F)nn12 | 27 |
